# Test system: Staphylococcus aureus
# Assay: Antibacterial activity against methicillin-resistant Staphylococcus aureus assessed as bacterial killing at 16 ug/ml by serial dilution method after 24 hrs
# Type: functional
smiles,measurement,value
CN[C@H](CC(C)C)C(=O)N[C@H]1C(=O)N[C@@H](CC(N)=O)C(=O)N[C@H]2C(=O)N[C@H]3C(=O)N[C@H](C(=O)N[C@H](C(=O)O)c4cc(O)cc(O)c4-c4cc3ccc4O)[C@H](O)c3ccc(c(Cl)c3)Oc3cc2cc(c3O[C@@H]2O[C@H](CO)[C@@H](O)[C@H](O)[C@H]2O[C@H]2C[C@](C)(N)[C@H](O)[C@H](C)O2)Oc2ccc(cc2Cl)[C@H]1O [VANCOMYCIN],log10CFU/ml,0.82

# From ChEMBL document CHEMBL1150799, “Vancomycin in vitro bactericidal activity and its relationship to efficacy in clearance of methicillin-resistant Staphylococcus aureus bacteremia” (2007)
